Source: ChEMBL document CHEMBL4507319 (2021)

What was measured:
[1] = target: Tyrosine-protein kinase receptor UFO (Homo sapiens) (UniProt P30530); assay: Axl(h) Eurofins kinase panel; settings: Compound concentration 1.0 uM
[2] = target: T1, Ephrin type-B receptor 2 (Homo sapiens) (UniProt P29323); assay: EphB2(h) Eurofins kinase panel; settings: Compound concentration 1.0 uM
T1 sequence (whole entry): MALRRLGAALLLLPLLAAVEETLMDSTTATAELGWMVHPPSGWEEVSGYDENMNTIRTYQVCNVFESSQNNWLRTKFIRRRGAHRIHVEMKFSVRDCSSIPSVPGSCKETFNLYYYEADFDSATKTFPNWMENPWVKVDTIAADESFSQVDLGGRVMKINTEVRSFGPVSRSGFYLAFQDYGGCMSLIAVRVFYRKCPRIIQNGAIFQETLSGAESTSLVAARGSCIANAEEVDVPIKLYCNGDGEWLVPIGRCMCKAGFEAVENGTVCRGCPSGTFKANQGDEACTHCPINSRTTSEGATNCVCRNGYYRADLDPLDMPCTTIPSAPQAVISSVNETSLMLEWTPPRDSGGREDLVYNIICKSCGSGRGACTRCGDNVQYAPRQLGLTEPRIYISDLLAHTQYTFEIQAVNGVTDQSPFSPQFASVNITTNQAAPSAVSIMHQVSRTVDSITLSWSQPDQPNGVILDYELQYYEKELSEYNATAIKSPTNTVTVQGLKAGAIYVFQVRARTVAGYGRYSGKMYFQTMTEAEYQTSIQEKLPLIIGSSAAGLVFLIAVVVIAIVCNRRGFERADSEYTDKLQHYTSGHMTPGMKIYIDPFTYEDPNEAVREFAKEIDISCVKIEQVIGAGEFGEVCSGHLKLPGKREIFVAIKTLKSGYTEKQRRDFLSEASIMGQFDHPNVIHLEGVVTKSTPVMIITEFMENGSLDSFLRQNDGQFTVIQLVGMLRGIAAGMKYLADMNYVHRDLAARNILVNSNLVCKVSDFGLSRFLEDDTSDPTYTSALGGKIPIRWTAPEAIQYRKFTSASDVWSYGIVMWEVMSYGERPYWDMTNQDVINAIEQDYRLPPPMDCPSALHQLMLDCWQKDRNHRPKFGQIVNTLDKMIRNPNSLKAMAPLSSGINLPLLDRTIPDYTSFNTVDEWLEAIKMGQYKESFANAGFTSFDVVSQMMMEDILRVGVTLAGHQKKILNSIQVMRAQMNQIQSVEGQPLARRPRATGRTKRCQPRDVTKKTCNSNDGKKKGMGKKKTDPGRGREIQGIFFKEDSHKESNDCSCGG

[3] = target: T2, Serine/threonine-protein kinase Nek1 (Homo sapiens) (UniProt Q96PY6); assay: NEK1(h) Eurofins kinase panel; settings: Compound concentration 1.0 uM
T2 sequence (whole entry): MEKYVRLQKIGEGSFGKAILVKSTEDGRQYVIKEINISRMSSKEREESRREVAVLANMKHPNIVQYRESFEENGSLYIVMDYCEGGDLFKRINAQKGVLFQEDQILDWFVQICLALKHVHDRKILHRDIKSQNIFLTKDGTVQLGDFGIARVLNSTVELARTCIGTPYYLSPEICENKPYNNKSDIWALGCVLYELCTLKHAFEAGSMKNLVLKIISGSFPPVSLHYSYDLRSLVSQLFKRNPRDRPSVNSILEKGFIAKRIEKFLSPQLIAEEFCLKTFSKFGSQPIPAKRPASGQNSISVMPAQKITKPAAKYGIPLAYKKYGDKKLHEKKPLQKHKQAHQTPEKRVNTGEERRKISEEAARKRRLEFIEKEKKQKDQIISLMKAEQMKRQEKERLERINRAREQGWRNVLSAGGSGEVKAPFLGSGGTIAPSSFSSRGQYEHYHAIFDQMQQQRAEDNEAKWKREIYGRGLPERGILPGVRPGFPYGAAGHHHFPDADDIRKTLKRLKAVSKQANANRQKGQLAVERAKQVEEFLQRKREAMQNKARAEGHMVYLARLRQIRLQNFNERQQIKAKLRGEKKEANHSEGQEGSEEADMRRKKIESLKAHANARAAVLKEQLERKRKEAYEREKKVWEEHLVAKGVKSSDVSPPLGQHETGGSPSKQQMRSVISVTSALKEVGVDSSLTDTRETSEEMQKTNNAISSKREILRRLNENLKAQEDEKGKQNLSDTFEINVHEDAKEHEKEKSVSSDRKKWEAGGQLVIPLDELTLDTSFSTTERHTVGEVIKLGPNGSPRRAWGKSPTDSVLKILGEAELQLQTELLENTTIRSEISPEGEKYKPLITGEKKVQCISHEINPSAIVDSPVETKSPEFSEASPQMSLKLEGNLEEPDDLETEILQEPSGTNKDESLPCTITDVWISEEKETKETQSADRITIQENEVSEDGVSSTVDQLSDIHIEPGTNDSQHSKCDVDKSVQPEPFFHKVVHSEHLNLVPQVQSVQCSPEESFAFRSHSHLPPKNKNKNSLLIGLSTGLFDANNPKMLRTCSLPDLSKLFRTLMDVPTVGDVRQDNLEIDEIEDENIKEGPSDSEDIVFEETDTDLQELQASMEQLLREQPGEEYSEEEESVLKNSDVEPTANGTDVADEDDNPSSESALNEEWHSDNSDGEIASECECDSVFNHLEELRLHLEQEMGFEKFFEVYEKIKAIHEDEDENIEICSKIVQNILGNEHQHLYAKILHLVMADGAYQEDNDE

U-251 = assay: U251 cell line Proliferation assay; assay type: functional, Homo sapiens; settings: time 3 day

Sequence of Tyrosine-protein kinase receptor UFO (Homo sapiens) (P30530 whole entry): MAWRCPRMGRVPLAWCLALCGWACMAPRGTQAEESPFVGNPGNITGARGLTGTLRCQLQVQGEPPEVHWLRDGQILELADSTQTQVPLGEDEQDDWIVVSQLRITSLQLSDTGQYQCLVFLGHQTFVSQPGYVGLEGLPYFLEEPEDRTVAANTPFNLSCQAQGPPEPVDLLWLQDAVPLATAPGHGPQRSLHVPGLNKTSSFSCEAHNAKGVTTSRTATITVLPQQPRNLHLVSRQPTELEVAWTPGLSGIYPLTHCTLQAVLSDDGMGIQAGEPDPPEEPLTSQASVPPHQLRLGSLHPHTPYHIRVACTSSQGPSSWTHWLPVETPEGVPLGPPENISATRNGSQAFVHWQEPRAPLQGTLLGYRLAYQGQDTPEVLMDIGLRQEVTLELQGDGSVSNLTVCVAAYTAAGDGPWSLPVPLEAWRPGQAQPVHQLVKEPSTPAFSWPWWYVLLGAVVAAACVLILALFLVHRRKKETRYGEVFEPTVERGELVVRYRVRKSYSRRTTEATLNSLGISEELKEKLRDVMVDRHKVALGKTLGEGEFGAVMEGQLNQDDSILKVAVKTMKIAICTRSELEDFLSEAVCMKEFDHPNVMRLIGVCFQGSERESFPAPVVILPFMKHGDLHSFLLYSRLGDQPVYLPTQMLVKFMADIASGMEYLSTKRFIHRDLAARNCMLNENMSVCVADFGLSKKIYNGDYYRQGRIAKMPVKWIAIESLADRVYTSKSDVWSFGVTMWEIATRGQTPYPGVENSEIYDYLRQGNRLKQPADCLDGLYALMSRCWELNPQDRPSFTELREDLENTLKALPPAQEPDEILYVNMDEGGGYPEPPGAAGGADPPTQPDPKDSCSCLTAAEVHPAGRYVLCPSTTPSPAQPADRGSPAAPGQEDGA

CCc1ccccc1C(=O)Nc1n[nH]c2c(C)c(F)c(C3C(C#N)=C(C)N(C)C(C)=C3C#N)cc12 [BAY-3827]
% residual kinase activity [1]: 100% | % residual kinase activity [2]: 98% | % residual kinase activity [3]: 102% | Cell Proliferation IC50 (U-251): 20.9 µM
